According to patent US7579353B2, “Pyridinone derivatives against malaria” (Glaxo Group Limited, priority 2005, dated 2009):

Test system: Plasmodium falciparum
Assay: In vitro anti-malarial activity against Plasmodium falciparum, IC50 assay / [3H]-hypoxanthine incorporation assay
Assay type: cell-based
Details: Erythrocyte, parasitized red blood cells, 48 hours
Experimental: In Vitro Anti-malarial Activity Against Plasmodium falciparum
IC50 Assay/[^3H]-Hypoxanthine Assay
Plasmodium falciparum strains.
The culture medium comprised RPMI 1640 with 25 mM HEPES, sodium bicarbonate and glutamine (GIBCO™ cat. ref.: 52400), supplemented with 10% of pooled human sera AB (Irvine Scientific, cat. ref.: 5009) and HT supplement (0.15 mM hypoxanthine and 24 μM thymidine), (GIBCO™ cat. ref.: 41065). Human sera were decomplemented 30 min. at 56° C., aliquoted and stored frozen at −20° C. until use in this culture medium.
Red blood cells O+ stock suspensions were prepared from whole blood bags coming from incomplete blood donation, provided by the Spanish Red Cross (<25 days after sampling). This “whole blood” was aliquoted and stored at 4° C.
To prepare red blood cells for the assay, the whole blood was centrifuged and washed 3 times with RPMI without serum. The upper phase, containing white blood cells was removed. The washed red blood cells were kept as a 50% suspension in complete medium. The prepared cells were stored at 4° C. and were employed in the assay at any time up to 4 days after preparation.
Test compounds were dissolved at 2 mg/ml in 100% DMSO on the day of the assay. If necessary, complete dissolution was achieved by gentle heating (the mixture was heated at a temperature <37° C.) and sonication (sonication bath).
For IC50 determinations, 10 serial 2-fold dilutions were prepared in complete medium in the presence of a constant amount of DMSO.
Plasmodium falciparum strains were maintained in complete medium at an hematocrit of 5% in continuous culture using a method adapted from Trager and Jensen (1, 2).
The parasitemia was calculated by counting the percentage of parasitized erythrocytes by optical microscopy. Thin films of blood were made every day from each culture flask, fixed with methanol and stained for 10 min. in Giemsa (Merck, cat ref.: 1.09204) at 10% in buffered water pH 7.2. The glass slides were observed and counted with an optical microscope (Nikon, Eclipse E200) equipped with a 100× immersion oil objective.
The culture was maintained at an hematocrit of 5%, with a daily change of medium and was diluted when parasitemia had reached about 5%.
[^3H] Hypoxanthine incorporation assay was conducted using a method adapted from Desjardins et al. (3). The assays were performed in 96 wells flat bottom microplates.
1. Serial dilutions of the test compounds (50 μl of a 5× solution/well) were deposited in duplicate. Compounds of the invention were tested in this assay. Chloroquine and Atovaquone were used as control compounds for each assay.
3. [^3H]-Hypoxanthine (Amersham Biosciences, cat. ref.: TRK74) was added extemporaneously to the inoculum suspension at a concentration of 1 μCi/ml (equating to […]). 200 μl of the resulting suspension was distributed into each well (other than the control well H12 described below) leading to a final volume of 250 μl per well, at 2% of hematocrit and 0.5% of parasitemia/well.
4. In each plate, 2 columns were reserved for control wells: • Column 11: Positive control wells: PRBCs with 0.2% DMSO—(i) to determine DMSO solvent effect on parasite growth (at a final concentration of 0.2%) and (ii) to compare with cultures treated with test compounds. • Column 12 (comprising wells A12-H12): • A12-D12—Background value wells: Uninfected RBCs—blank control to obtain the background reading from RBCs without parasites. • E12-G12—Solvent effect wells: PRBCs without DMSO—to determine DMSO solvent effect on PRBCs by comparing these wells with column 11 wells. • H12-Non-radioactive well: PRBCs with cold hypoxanthine—(i) to carry out a thin blood film to determine parasitemia value after incubation by microscopy and (ii) to ensure that the parasites have grown properly during the assay. (200 μl of inoculum suspension was prepared as described above (Items 2 and 3) but with non-tritiated hypoxanthine instead of [3H]-hypoxanthine, then added to this well to a final volume of 250 μl). […]

Row | Structure (SMILES) | IC50 [µg/mL]
1 | Cc1[nH]c(C)c(-c2ccc(OCc3ccc(F)cc3)nc2)c(=O)c1Cl [Example 13, 5-Chloro-6′-{[4-fluorobenzyl]oxy}-2,6-dimethyl-3,3′-bipyridin-4(1H)-one] | < 0.125
2 | Cc1[nH]c(C)c(-c2ccc(OCc3cccc(C(F)(F)F)c3)nc2)c(=O)c1Cl [Example 9, 5-Chloro-2,6-dimethyl-6′-{[3-(trifluoromethyl)benzyl]oxy}-3,3′-bipyridin-4(1H)-one] | < 0.125
3 | Cc1[nH]c(C)c(-c2ccc(OCc3cc(F)cc(F)c3)nc2)c(=O)c1Cl [Example 14, 5-Chloro-6′-{[3,5-difluorobenzyl]oxy}-2,6-dimethyl-3,3′-bipyridin-4(1H)-one] | < 0.125
4 | Cc1[nH]c(C)c(-c2ccc(OCc3cc(F)cc(F)c3)nc2)c(=O)c1Br [Example 7, 5-Bromo-6′-{[3,5-difluorobenzyl]oxy}-2,6-dimethyl-3,3′-bipyridin-4(1H)-one] | < 0.125
5 | CCCCCCCc1ccc(-c2c(C)[nH]c(C)c(Cl)c2=O)cn1 [Example 47, 5-Chloro-6′-(n-heptyl)-2,6-dimethyl-3,3′-bipyridin-4(1H)-one] | < 0.125
6 | Cc1[nH]c(C)c(-c2ccc(OCc3ccc(F)cc3)nc2)c(=O)c1Br [Example 6, 5-Bromo-6′-{[4-fluorobenzyl]oxy}-2,6-dimethyl-3,3′-bipyridin-4(1H)-one] | < 0.125
7 | Cc1[nH]c(C)c(-c2ccc(-c3cccc(Cl)c3)nc2)c(=O)c1Cl [Example 34, 5-Chloro-6′-(3-chlorophenyl)-2,6-dimethyl-3,3′-bipyridin-4(1H)-one] | < 0.125
8 | Cc1[nH]c(C)c(-c2ccc(-c3ccc(OC(F)(F)F)cc3)nc2)c(=O)c1Cl [Example 27, 5-Chloro-2,6-dimethyl-6′-{4-[(trifluoromethyl)oxy]phenyl}-3,3′-bipyridin-4(1H)-one] | < 0.125
9 | Cc1[nH]c(C)c(-c2ccc(OCc3cc(C(F)(F)F)cc(C(F)(F)F)c3)nc2)c(=O)c1Br [Example 5, 5-Bromo-2,6-dimethyl-6′-{[3,5-bis(trifluoromethyl)benzyl]oxy}-3,3′-bipyridin-4(1H)-one] | < 0.125
10 | CCCCc1ccc(-c2ccc(-c3c(C)[nH]c(C)c(Br)c3=O)cn2)cc1.Cl [Example 39, 5-Bromo-6′-(4-n-butylphenyl)-2,6-dimethyl-3,3′-bipyridin-4(1H)-one] | < 0.125
11 | Cc1[nH]c(C)c(-c2ccc(-c3ccc(C(F)F)cc3)nc2)c(=O)c1Cl [Example 63, 5-Chloro-2,6-dimethyl-6′-{4-[difluoromethyl]phenyl}-3,3′-bipyridin-4(1H)-one] | < 0.125
12 | Cc1[nH]c(C)c(-c2ccc(Oc3cccc(C(F)(F)F)c3)cc2)c(=O)c1Cl [Compound Z, 3-Chloro-2,6-dimethyl-5-(4-{[3-(trifluoromethyl)phenyl]oxy}phenyl)-4(1H)pyridinone, reference compound] | < 0.125
13 | Cc1[nH]c(C)c(-c2ccc(OCc3ccccc3C(F)(F)F)nc2)c(=O)c1Br [Example 4, 5-Bromo-2,6-dimethyl-6′-{[2-(trifluoromethyl)benzyl]oxy}-3,3′-bipyridin-4(1H)-one] | < 0.125
14 | Cc1[nH]c(C)c(-c2ccc(OCc3ccc(OC(F)(F)F)cc3)nc2)c(=O)c1Br [Example 1, 5-Bromo-2,6-dimethyl-6′-{[4-(trifluoromethoxy)benzyl]oxy}-3,3′-bipyridin-4(1H)-one] | < 0.125
15 | Cc1[nH]c(C)c(-c2cnc(-c3ccc(C(F)(F)F)cc3)nc2)c(=O)c1Cl [Example 64, 3-Chloro-2,6-dimethyl-5-(5-(2-(4-trifluoromethylphenyl))pyrimidinyl)pyridin-4(1H)-one] | < 0.125
16 | Cc1[nH]c(C)c(-c2ccc(OCc3cc(C(F)(F)F)cc(C(F)(F)F)c3)nc2)c(=O)c1Cl [Example 12, 5-Chloro-2,6-dimethyl-6′-{[3,5-bis(trifluoromethyl)benzyl]oxy}-3,3′-bipyridin-4(1H)-one] | < 0.125
17 | Cc1[nH]c(C)c(-c2ccc(-c3ccccc3OC(F)(F)F)nc2)c(=O)c1Cl [Example 29, 5-Chloro-2,6-dimethyl-6′-{2-[(trifluoromethyl)oxy]phenyl}-3,3′-bipyridin-4(1H)-one] | < 0.125
18 | Cc1[nH]c(C)c(-c2ccc(Oc3ccc(OC(F)(F)F)cc3)cc2)c(=O)c1Cl [Compound Y, 3-chloro-5-(4-(4-trifluoromethoxyphenoxy)phenyl)-2,6-dimethylpyridin-4(1H)-one, reference compound] | < 0.125
19 | Cc1[nH]c(C)c(-c2ccc(OCc3cccc(C(F)(F)F)c3)nc2)c(=O)c1Br [Example 2, 5-Bromo-2,6-dimethyl-6′-{[3-(trifluoromethyl)benzyl]oxy}-3,3′-bipyridin-4(1H)-one] | < 0.125
20 | Cc1[nH]c(C)c(-c2ccc(CCc3ccc(F)cc3F)nc2)c(=O)c1Cl [Example 46, 5-Chloro-6′-{2-[2,4-difluorophenyl]ethyl}-2,6-dimethyl-3,3′-bipyridin-4(1H)-one] | < 0.125
21 | Cc1[nH]c(C)c(-c2ccc(CCc3ccc(C(F)(F)F)cc3)cn2)c(=O)c1Cl [Example 52, 5′-Chloro-2′,6′-dimethyl-5-{2-[4-(trifluoromethyl)phenyl]ethyl}-2,3′-bipyridin-4′(1′H)-one] | < 0.125
22 | Cc1[nH]c(C)c(-c2ccc(-c3ccc(Cl)cc3)nc2)c(=O)c1Cl [Example 33, 5-Chloro-6′-(4-chlorophenyl)-2,6-dimethyl-3,3′-bipyridin-4(1H)-one] | < 0.125
